From patent US20100113613A1, “CYCLOHEXANE POLYALCOHOL FORMULATION FOR TREATMENT OF DISORDERS OF PROTEIN AGGREGATION” (WARATAH PHARMACEUTICALS, priority 2006, published 2010)
Like-named read-outs stand apart in the source and are kept apart here.

Tests used:
[1] = in vivo; conditions: dog; for AUC(0-inf) / AUC(0-t) / CL/F / Cmax / MRT / Tmax / VdSS / half-life: po
Procedure: Plasma PK of a scyllo-cyclohexanhexyl in dogs was assessed after 14 days oral dosing of 15, 50 and 150 mg/kg, administered twice daily. As on Day 1 of this study Cmax and AUC values increased proportionally with dose level of scyllo-cyclohexanehexyl. However, dose-normalised exposures appeared to decrease with dose. This contrasts with positive trend observed after acute exposure. […] As for single doses, the scyllo-cyclohexanehexyl was absorbed rapidly, with tmax observed between 1.1 and 1.8 hours post-dose. […] Estimates of MRT were consistent. The Vdss and Cl/F values were similar for all dose levels.

[2] = CSF and plasma levels at end of 14 day repeat dose study in dogs; type: in vivo, dog; conditions: dog, oral, after 14 days dosing; for concentration at 24 h: CSF, read-out: CSF level at 24 h; for concentration at 12 h: plasma, read-out: Plasma level at 12 h
Procedure: CSF was also collected from dogs at the end of the 14 day repeat study upon necropsy (approximately 24 hours after the final dose was administered). Levels of the scyllo-cyclohexanehexyl in CSF increased with dose and followed the profile observed in plasma.

[3] = in vivo; conditions: rat, po
Procedure: Three studies were performed to investigate the pharmacokinetics of oral administration of a scyllo-cyclohexanehexyl (Table 1):
Plasma pharmacokinetics (PK) of a scyllo-cyclohexanehexyl in rats was assessed after single oral doses of 15, 50 and 150 mg/kg. After single oral doses in rats, maximum plasma concentration (Cmax) and exposure (AUC0-t) values increased proportionally with dose level of the scyllo-cyclohexanehexyl. Other parameters were unchanged with dose level. The scyllo-cyclohexanehexyl was absorbed rapidly, with mean tmax observed between 1.0 and 2.2 hours post-dose. […] Estimates of mean residence time (MRT) were consistent. Volumes of distribution (Vdss) were large, indicating wide distribution of scyllo-cyclohexanehexyl in rats.

[4] = Brain penetrance: plasma and CSF pharmacokinetics after single oral doses in dogs; type: in vivo, dog; conditions: dog
Source text: CSF bathes the central nervous system and sits on the inside of the blood brain barrier. Although a centrally-acting drug will still need to penetrate brain tissue to exert an effect, quantification of drug in CSF may provide a gross estimate of brain-penetrance.

[5] = Single oral and intravenous dose pharmacokinetics, dose range-finding study in beagle dogs; type: in vivo, beagle dog; conditions: beagle, dog, plasma; for Tmax: po
Procedure: PK of single oral doses of the scyllo-cyclohexanhexyl was also investigated in a preliminary fashion in a dose range-finding study in 5 beagle dogs. […] The Cmax and AUC values increased proportionally with dose, consistent with observations in the larger study. Estimates of t½ ranged from 2 to 5 hours. Neither dose nor route of administration had any clear effect on t½, MRT, Cl/F or Vdss.

[6] = CSF, single oral dose 240 mg/kg
[7] = PLASMA LEVELS, single oral dose 20 mg/kg
[8] = PLASMA LEVELS, single oral dose 80 mg/kg
[9] = PLASMA LEVELS, single oral dose 240 mg/kg

- kel ([1]; 15 mg/kg): 0.2 ± 0.08 h⁻¹
- kel ([1]; 50 mg/kg): 0.2 ± 0.1 h⁻¹
- kel ([1]; 150 mg/kg): 0.3 ± 0.04 h⁻¹
- AUC(0-inf) ([1]; 15 mg/kg): 95.2 ± 18.6 µg·h/mL
- AUC(0-t) ([1]; 15 mg/kg): 75.2 ± 9.4 µg·h/mL
- CL/F ([1]; 15 mg/kg): 0.698 mL/min/kg
- Cmax ([1]; 15 mg/kg): 16400 ± 4500 ng/mL
- MRT ([1]; 15 mg/kg): 7.4 ± 1.5 h
- Tmax ([1]; 15 mg/kg): 1.7 ± 0.5 h
- VdSS ([1]; 15 mg/kg): 0.3017 ± 0.0419 L/kg
- half-life ([1]; 15 mg/kg): 4.7 ± 2 h
- AUC(0-inf) ([1]; 50 mg/kg): 262 ± 52.4 µg·h/mL
- AUC(0-t) ([1]; 50 mg/kg): 232 ± 50.2 µg·h/mL
- CL/F ([1]; 50 mg/kg): 0.86 mL/min/kg
- Cmax ([1]; 50 mg/kg): 59400 ± 13000 ng/mL
- MRT ([1]; 50 mg/kg): 5.3 ± 1.2 h
- Tmax ([1]; 50 mg/kg): 1.1 ± 0.5 h
- VdSS ([1]; 50 mg/kg): 0.2726 ± 0.1217 L/kg
- half-life ([1]; 50 mg/kg): 3.8 ± 1.2 h
- AUC(0-inf) ([1]; 150 mg/kg): 557 ± 133 µg·h/mL
- AUC(0-t) ([1]; 150 mg/kg): 523 ± 123 µg·h/mL
- CL/F ([1]; 150 mg/kg): 1.2 mL/min/kg
- Cmax ([1]; 150 mg/kg): 121000 ± 26700 ng/mL
- MRT ([1]; 150 mg/kg): 4.6 ± 0.4 h
- Tmax ([1]; 150 mg/kg): 1.8 ± 0.4 h
- VdSS ([1]; 150 mg/kg): 0.3321 ± 0.0881 L/kg
- half-life ([1]; 150 mg/kg): 2.9 ± 0.6 h
- concentration at 24 h ([2]; Dose 30 mg/kg): 4000 ng/mL
- concentration at 24 h ([2]; Dose 100 mg/kg): 7500 ng/mL
- concentration at 24 h ([2]; Dose 300 mg/kg): 10900 ng/mL
- concentration at 12 h ([2]; Dose 30 mg/kg): 3600 ng/mL
- concentration at 12 h ([2]; Dose 100 mg/kg): 5800 ng/mL
- concentration at 12 h ([2]; Dose 300 mg/kg): 8200 ng/mL
- AUC(0-inf) ([3]; 15 mg/kg): 41.9 ± 11.9 µg·h/mL
- AUC(0-t) ([3]; 15 mg/kg): 39.7 ± 11.3 µg·h/mL
- CL/F ([3]; 15 mg/kg): 12.8 mL/min/kg
- Cmax ([3]; 15 mg/kg): 13200 ± 2000 ng/mL
- MRT ([3]; 15 mg/kg): 3.7 ± 0.5 h
- Tmax ([3]; 15 mg/kg): 1 h
- Vd ([3]; 15 mg/kg): 2.82 L/kg
- half-life ([3]; 15 mg/kg): 2.7 ± 0.6 h
- kel ([3]; 15 mg/kg): 0.27 ± 0.07 h⁻¹
- AUC(0-inf) ([3]; 50 mg/kg): 169 ± 31.8 µg·h/mL
- AUC(0-t) ([3]; 50 mg/kg): 163 ± 29 µg·h/mL
- CL/F ([3]; 50 mg/kg): 10.1 mL/min/kg
- Cmax ([3]; 50 mg/kg): 45300 ± 7100 ng/mL
- MRT ([3]; 50 mg/kg): 3.6 ± 0.6 h
- Tmax ([3]; 50 mg/kg): 1.5 ± 0.5 h
- Vd ([3]; 50 mg/kg): 2.13 L/kg
- half-life ([3]; 50 mg/kg): 2.4 ± 0.2 h
- kel ([3]; 50 mg/kg): 0.29 ± 0.02 h⁻¹
- AUC(0-inf) ([3]; 150 mg/kg): 552 ± 154 µg·h/mL
- AUC(0-t) ([3]; 150 mg/kg): 537 ± 154 µg·h/mL
- CL/F ([3]; 150 mg/kg): 9.55 mL/min/kg
- Cmax ([3]; 150 mg/kg): 131000 ± 54800 ng/mL
- MRT ([3]; 150 mg/kg): 3.9 ± 0.7 h
- Tmax ([3]; 150 mg/kg): 2.2 ± 1.5 h
- Vd ([3]; 150 mg/kg): 2.24 L/kg
- half-life ([3]; 150 mg/kg): 2.1 ± 0.2 h
- kel ([3]; 150 mg/kg): 0.33 ± 0.03 h⁻¹
- AUC(0-inf) ([4]; CSF, single oral dose 20 mg/kg): 38 ± 22.8 µg·h/mL
- AUC(0-t) ([4]; CSF, single oral dose 20 mg/kg): 20.6 ± 6.6 µg·h/mL
- Cmax ([4]; CSF, single oral dose 20 mg/kg): 2300 ± 1400 ng/mL
- Tmax ([4]; CSF, single oral dose 20 mg/kg): 4 ± 1.7 h
- AUC(0-inf) ([4]; CSF, single oral dose 80 mg/kg): 103 ± 13.1 µg·h/mL
- AUC(0-t) ([4]; CSF, single oral dose 80 mg/kg): 98 ± 13.2 µg·h/mL
- Cmax ([4]; CSF, single oral dose 80 mg/kg): 18700 ± 1000 ng/mL
- Tmax ([4]; CSF, single oral dose 80 mg/kg): 2.8 ± 1.5 h
- AUC(0-inf) [4, 6]: 401 ± 204 µg·h/mL
- AUC(0-t) [4, 6]: 384 ± 204 µg·h/mL
- Cmax [4, 6]: 67400 ± 28600 ng/mL
- Tmax [4, 6]: 3 ± 1.7 h
- AUC(0-inf) [4, 7]: 52.7 ± 17.9 µg·h/mL
- AUC(0-t) [4, 7]: 42.6 ± 9.6 µg·h/mL
- Cmax [4, 7]: 6100 ± 3600 ng/mL
- Tmax [4, 7]: 2.8 ± 2.2 h
- AUC(0-inf) [4, 8]: 255 ± 58.6 µg·h/mL
- AUC(0-t) [4, 8]: 250 ± 59.3 µg·h/mL
- Tmax [4, 8]: 2.3 ± 1.3 h
- AUC(0-inf) [4, 9]: 528 ± 74.6 µg·h/mL
- AUC(0-t) [4, 9]: 514.5 ± 0.3 µg·h/mL
- Cmax [4, 9]: 101000 ± 17800 ng/mL
- Tmax [4, 9]: 2.3 ± 1.5 h
- Tmax ([5]; 20 mg/kg, dogs, single oral dose 20 mg/kg): 1.5 ± 0.6 h
- Tmax ([5]; 80 mg/kg, dogs, single oral dose 80 mg/kg): 2 ± 1.2 h
- Tmax ([5]; 240 mg/kg, beagle dogs, following an oral dose (20, 80 and 240 mg/kg)): 1.5 to 2 h
- Tmax ([5]; 240 mg/kg, dogs, single oral dose 240 mg/kg): 2 ± 1.4 h
- bioavailability ([5]; dogs, 80 mg/kg dose level, oral vs i.v.): > 90%
- AUC(0-inf) ([5]; dogs, single intravenous dose 80 mg/kg): 173 ± 9 µg·h/mL
SMILES: OC1C(O)C(O)C(O)C(O)C1O (centres unmarked) [AZD-103, scyllo-inositol]
